Experimental data reported in patent US20100137344A1, “INDUCTION OF ANALGESIA IN NEUROPATHIC PAIN” (University Court of the University of Edinburgh, priority 2006, published 2010).

Legend:
[1] = test system: naïve rats; test: Topical application to paws of naïve rats, behavioural reflex testing (PWL, PWT); format: in vivo, rat; conditions: Naïve
Experimental: (§1) Thermal sensitivity was assessed by measuring paw withdrawal latency (PWL, s) in response to a noxious thermal stimulus (Hargreaves' thermal stimulator, Linton Instrumentation, Diss, UK) directed to the hindpaw mid-plantar glabrous surface. Mechanical sensitivity was recorded as the paw withdrawal threshold (PWT, mN/mm^2) to calibrated von Frey filaments (Stoelting, Ill., US), as previously described^[39]. Sensitivity to noxious cold was assessed by placing animals in a waterbath with an aluminium floor containing 1 cm deep 4° C. water and counting the time the paw was held suspended over a 20 s period.
Icilin was applied at concentrations of 2.5-500 μM (in water with 0.2% DMF), by placing CCI or naïve rats unrestrained for 5 min in a 1 cm deep waterbath (sufficient to cover paws), which was thermostatically controlled to a temperature of 30° C., or by very lightly anaesthetising rats and immersing hindpaws in small tubes containing 5 ml icilin (500 μM-5 mM, with a vehicle of 45% dimethylformamide in 0.2% aqueous Tween 80) for 5 min, followed by sensory testing for 60-80 mins. The effects of (−)-menthol and its stereoisomers isomenthol (1S,2R,5R-menthol,) and (+)-menthol (1S,2R,5S(+)-menthol) (4-16 mM in 80% ethanol) were also assessed. Relevant vehicles were always assessed in similar experiments. As a contrast, the effect of cinnamaldehyde (1.5 mM in water) and the effect of cinnamaldehyde with additional icilin (80 μM in water with 0.2% DMF) were assessed in naïve animals. The effects of icilin (80 μM) were further assessed in CCI animals that had undergone antisense and mis-sense treatment for knockdown of TRPM8 or immediately following intrathecal injection of either LY 341495 or UBP 1112. […] The effects of brief paw immersion at different temperatures (10-22° C. for 5 min) on CCI rats were assessed by mechanical testing. The effects of intrathecal LY 341495 or UBP 1112 on the reversal of ipsilateral sensitisation in CCI following a 16° C. cool challenge for 5 min were measured. Reflex testing commenced 5 minutes following challenge, unless animals had been anaesthetised, in which case 15 minutes was allowed for recovery. Six replicate animals were tested in all pharmacological experiments.

[2] = test system: rats sensitised by the TRPA1 activator cinnamaldehyde; test: Cinnamaldehyde-induced sensitisation and its reversal by icilin (PWL, PWT); format: in vivo, rat; conditions: for Mean % reversal of mechanical sensitisation (after 15-30 mins) / Mean % reversal of thermal sensitisation (after 15-30 mins) / PWL (s) difference from control (+ icilin) / PWT (mN/mm^2) difference from control (+ icilin): icilin 10 nmol, i.t.
Experimental: as §1
The following drugs were applied intrathecally in a 50 μl volume of saline-based vehicle at 37° C.: icilin (2.5-200 μM in saline with 0.2% dimethylformamide, DMF), LY 341495 (100 μM in saline), UBP 1112 (200 μM in saline), 2R,4R-APDC ((2R, 4R)-4-aminopyrrolidine-2,4-dicarboxylate), 300 μM in saline), ACPT-III ((1R,3R,4S)-1-aminocyclopentane-1,3,4-tricarboxylic acid), 3 mM in saline), AP-4, ((L-(1)-2-amino-4-phosphonobutyric acid), 3 mM in saline), naloxone (0.5 mM in saline), NMDA (75 μM in saline) and ACPC (1-aminocyclopropanecarboxylic acid, 15 μM in saline) (Tocris Cookson, Bristol, UK), (−)-menthol (1R,2S,5R-(−)-menthol, 4 mM in saline), cinnamaldehyde (1.5 mM in saline) and Ruthenium Red (5 μM in saline) (Sigma-Aldrich Co. Ltd, UK) and allicin (0.5 mM in saline with 0.5% DMF) and diallyl disulphide (DADS, 1 mM in saline with 0.5% DMF) (LKT Laboratories Inc., St Paul, Minn., USA). Drugs were injected into the L5/6 intrathecal space under brief halothane anaesthesia, using a 25-gauge needle microsyringe (BD Biosciences, Oxford, UK), as described previously^[39] in animals that were at peak levels of behavioural sensitisation. Behavioural reflex testing commenced 15 min following injection to allow recovery from anaesthesia^[40,41,42] and continued every 5 min thereafter until readings returned to baseline levels (n=6 in each case). We, and others^[40,41,42] find complete recovery from anaesthetic by 15 minutes. All appropriate controls were carried out to eliminate the possibility of effects due to vehicle or to injection procedure.
The TRPM8 channel activators, icilin and (−)-menthol were tested in CCI and naïve animals. The effects of icilin were additionally assessed in animals with CFA-induced inflammation or with lysolecithin-induced demyelination. Icilin was also co-administered with the μ-opioid receptor antagonist naloxone, the Group II metabotropic glutamate receptor (mGluR) antagonist, LY 341495, or the Group III mGluR antagonist, UBP 1112. The effects of these antagonists alone as well as effects of the Group II mGluR agonist, 2R,4R-APDC and the Group III mGluR agonists, ACPT-III and AP-4, were assessed in CCI animals. The TRPA1 channel activator, cinnamaldehyde, alone and with icilin, was tested in CCI animals and in naïve animals. Further TRPA1 channel activators, allicin and diallyl disulphide were assessed in naïve animals. Both icilin and cinnamaldehyde effects in CCI animals were also investigated in the additional presence of Ruthenium Red.
Icilin was applied at concentrations of 2.5-500 μM (in water with 0.2% DMF), by placing CCI or naïve rats unrestrained for 5 min in a 1 cm deep waterbath (sufficient to cover paws), which was thermostatically controlled to a temperature of 30° C., or by very lightly anaesthetising rats and immersing hindpaws in small tubes containing 5 ml icilin (500 μM-5 mM, with a vehicle of 45% dimethylformamide in 0.2% aqueous Tween 80) for 5 min, followed by sensory testing for 60-80 mins. The effects of (−)-menthol and its stereoisomers isomenthol (1S,2R,5R-menthol,) and (+)-menthol (1S,2R,5S(+)-menthol) (4-16 mM in 80% ethanol) were also assessed. Relevant vehicles were always assessed in similar experiments. As a contrast, the effect of cinnamaldehyde (1.5 mM in water) and the effect of cinnamaldehyde with additional icilin (80 μM in water with 0.2% DMF) were assessed in naïve animals. […]

[3] = icilin 1000 μM applied to paw, 15 mins
[4] = icilin 1000 μM applied to paw, 50 mins
[5] = icilin 2500 μM applied to paw, 15 mins
[6] = icilin 2500 μM applied to paw, 50 mins
[7] = icilin 5000 μM applied to paw, 15 mins
[8] = icilin 5000 μM applied to paw, 50 mins

## O=C1NC(c2cccc([N+](=O)[O-])c2)=CCN1c1ccccc1O [icilin, 1-(2′-hydroxyphenyl)-4-(3″-nitrophenyl)-1,2,3,6-tetrahydropyrimidin-2-one]
[1]; [3]
  Mechanical PWT: 4830.6 ± 0.0 mN/mm^2
  Thermal PWL: 15.1 ± 1.2 s
[1]; [4]
  Mechanical PWT: 4830.6 ± 0.0 mN/mm^2
  Thermal PWL: 14.8 ± 0.9 s
[1]; [5]
  Mechanical PWT: 4830.6 ± 0.0 mN/mm^2
  Thermal PWL: 14.9 ± 0.3 s
[1]; [6]
  Mechanical PWT: 4830.6 ± 0.0 mN/mm^2
  Thermal PWL: 13.2 ± 0.8 s
[1]; [7]
  Mechanical PWT: 3828.6 ± 316.8 mN/mm^2
  Thermal PWL: 15.3 ± 0.5 s
[1]; [8]
  Mechanical PWT: 4830.6 ± 0.0 mN/mm^2
  Thermal PWL: 13.1 ± 0.7 s
[2]; Cinnamaldehyde (intrathecal)
  Mean % reversal of mechanical sensitisation (after 15-30 mins): 92.6 ± 2.8%
  Mean % reversal of thermal sensitisation (after 15-30 mins): 91.5 ± 4.1%
  PWL (s) difference from control (+ icilin): 0.5 ± 1.8 s
  PWT (mN/mm^2) difference from control (+ icilin): 150.3 ± 125.2 mN/mm^2
[2]; Cinnamaldehyde (topical)
  Mean % reversal of mechanical sensitisation (after 15-30 mins): 100.0 ± 0.0%
  Mean % reversal of thermal sensitisation (after 15-30 mins): 92.0 ± 6.1%
  PWL (s) difference from control (+ icilin): 0.4 ± 1.6 s
  PWT (mN/mm^2) difference from control (+ icilin): 0.0 ± 0.0 mN/mm^2
[2]; topical icilin 200 μM, data not shown
  effect on sensitisation by topical cinnamaldehyde: reversed
